Measurements from BindingDB's records for doi:10.1016/j.bmcl.2003.10.062 (Technische Universitat Braunschweig, 2004).

What was measured:
[1] = molecular target: Cyclin-dependent kinase 1/G2/mitotic-specific cyclin-B (Marthasterias glacialis, UniProt P15206+Q9DGD3); test: Kinase Inhibition Assay; conditions: pH 7.2; 30 °C
[2] = molecular target: T1, Cyclin-dependent kinase 5 activator 1 [99-307] (Homo sapiens, UniProt Q00535); test: Kinase Inhibition Assay; conditions: pH 7.2; 30 °C
T1 construct: 99-307
T1 sequence (Q15078 99-307): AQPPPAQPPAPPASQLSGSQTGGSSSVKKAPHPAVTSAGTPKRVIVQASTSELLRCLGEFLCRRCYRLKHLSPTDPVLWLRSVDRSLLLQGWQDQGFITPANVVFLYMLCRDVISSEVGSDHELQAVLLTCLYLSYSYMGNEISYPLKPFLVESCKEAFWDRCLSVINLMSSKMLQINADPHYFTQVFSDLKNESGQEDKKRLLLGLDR
T1 sequence (Q00535 whole entry): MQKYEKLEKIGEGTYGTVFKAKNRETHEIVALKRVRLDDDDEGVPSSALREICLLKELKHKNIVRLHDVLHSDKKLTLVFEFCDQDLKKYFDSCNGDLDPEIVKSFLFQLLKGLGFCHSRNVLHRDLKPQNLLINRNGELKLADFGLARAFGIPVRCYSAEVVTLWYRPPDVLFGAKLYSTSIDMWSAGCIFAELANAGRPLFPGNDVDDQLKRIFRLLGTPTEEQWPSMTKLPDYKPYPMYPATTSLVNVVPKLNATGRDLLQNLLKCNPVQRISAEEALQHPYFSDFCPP

Cyclin-dependent kinase 1/G2/mitotic-specific cyclin-B, sequence (Q9DGD3 whole entry): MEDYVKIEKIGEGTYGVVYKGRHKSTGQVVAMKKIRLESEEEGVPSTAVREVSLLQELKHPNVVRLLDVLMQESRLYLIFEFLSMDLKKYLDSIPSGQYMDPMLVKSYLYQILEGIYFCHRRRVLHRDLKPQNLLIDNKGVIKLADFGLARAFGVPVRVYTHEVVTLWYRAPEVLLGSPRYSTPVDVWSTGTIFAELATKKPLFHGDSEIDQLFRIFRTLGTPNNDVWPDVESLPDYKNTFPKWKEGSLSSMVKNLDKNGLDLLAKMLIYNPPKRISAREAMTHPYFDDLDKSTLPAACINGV
Cyclin-dependent kinase 1/G2/mitotic-specific cyclin-B, sequence (P15206 whole entry): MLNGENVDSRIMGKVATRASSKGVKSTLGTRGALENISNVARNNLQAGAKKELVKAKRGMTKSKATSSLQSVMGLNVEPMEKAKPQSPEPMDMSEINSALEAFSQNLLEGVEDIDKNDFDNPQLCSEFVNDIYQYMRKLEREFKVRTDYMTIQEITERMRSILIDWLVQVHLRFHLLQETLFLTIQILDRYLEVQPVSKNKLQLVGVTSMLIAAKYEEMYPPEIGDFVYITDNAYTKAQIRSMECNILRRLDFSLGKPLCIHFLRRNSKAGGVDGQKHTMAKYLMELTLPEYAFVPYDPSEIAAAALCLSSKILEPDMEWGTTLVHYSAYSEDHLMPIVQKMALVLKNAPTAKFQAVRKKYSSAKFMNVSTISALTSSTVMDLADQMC

**Q.** For `O=Nc1c(C2C(=O)Nc3ccc(I)cc32)[nH]c2ccccc12` (configuration not stated) [3-[(2Z,3E)-3-(hydroxyimino)-2,3-dihydro-1H-indol-2-ylidene]-5-iodo-2,3-dihydro-1H-indol-2-one], which IC50 [1] is on record?
**A.** The IC50 was 25 nM.

**Q.** What about the IC50 [2] of the same molecule?
**A.** The IC50 was 20 nM.
